Patent US7468393B2, “Diarylsulfones as 5-HT2A antagonists” (Merck Sharp & Dohme Ltd., priority 2004, dated 2008)

## C[C@H](O)c1ccccc1S(=O)(=O)c1ccc(/C=C/c2ccc(F)cc2)cc1 [Example 135, (1S)-1-[2-({4-[(E)-2-(4-fluorophenyl)vinyl]phenyl}sulfonyl)phenyl]ethanol]
  melting point: 75 °C
